Assay [1] deals with Neoscytalidium dimidiatum. The experiment in a line: Antifungal activity, filter paper disc agar diffusion method. The format is cell-based. The settings on record: includes 6 mm disc, 10.0 µg/disc (carbendazim 10 μL, 1.0 mg/mL), mean ± SD, triplicate. How it is done:
The antifungal activities of three known compounds (5–7) were determined by the filter paper disc agar diffusion method.
The inhibitory activities of some compounds against six phytopathogenic fungi (Fusarium oxysporum f. sp. cubense, Colletotrichum gloeosporioides, Thielaviopsis paradoxa, Bipolaris cactivora (Petrak) Alcorn, Neoscytalidium dimidiatum, and Colletotrichum scovillei) were evaluated using the filter paper disc agar diffusion method; 250 μL of the fungal solution was aspirated onto the corresponding solid medium and spread evenly with a cotton swab. Samples were dissolved in MeOH to prepare solutions of 1.0 mg/mL and 3.0 mg/mL concentrations. Carbendazim (10 μL, 1.0 mg/mL) was used as a positive control and MeOH (10 μL) was used as negative control. The diameter of the inhibition zones of the plates cultured at 37 °C for 24 h were measured including the 6 mm disc diameter. Experiments were performed in triplicate.

For assay [2], the system named is human HeLa cervical cancer cells. The experiment in a line: Cytotoxic assay (modified MTT), HeLa. The format is cell-based. Particulars: mean ± SD of three parallel experiments. As to the method: (§1) All the compounds mentioned above were tested for their cytotoxic activities against human myeloid leukemia cells (K562), human liver cancer cells (BEL-7402), human gastric cancer cells (SGC-7901), human non-small cell lung cancer cells (A549) and human HeLa cervical cancer cells. […] Compared to the cytotoxic activity of 7, the cytotoxic activity of 5 was much stronger.
(§2) All above-mentioned compounds were evaluated for their cytotoxicity in five human tumor cell lines: K562, BEL-7402, SGC-7901, A549 and HeLa cells which were bought from the Cell Bank of Type Culture Collection of the Shanghai Institute of Cell Biology, Chinese Academy of Sciences, using modified MTT methods. The details of this are described in our previous paper. The positive control was cisplatin.

Assay [3] relates to human non-small cell lung cancer cells (A549). Description: Cytotoxic assay (modified MTT), A549. The format is cell-based. Particulars: mean ± SD of three parallel experiments. As to the method:
as §1, §2

The test system of assay [4] is human gastric cancer cells (SGC-7901). Description: Cytotoxic assay (modified MTT), SGC-7901. The settings on record: mean ± SD of three parallel experiments. The class given is cell-based. How it is done: as §1, §2
Assay [5] relates to human liver cancer cells (BEL-7402). Description: Cytotoxic assay (modified MTT), BEL-7402. The class given is cell-based. Particulars: mean ± SD of three parallel experiments. As to the method: as §1, §2
Assay [6] deals with human myeloid leukemia cells (K562). Description: Cytotoxic assay (modified MTT), K562. The class given is cell-based. The settings on record: mean ± SD of three parallel experiments. How it is done: as §1, §2
The next assay addresses α-glucosidase (Saccharomyces cerevisiae, UniProt P53341). The experiment in a line: α-Glucosidase inhibition assay (PNPG substrate). The format is biochemical. How it is done:
All abovementioned compounds were measured for their inhibitory effects against α-glucosidase, using PNPG as the substrate. The enzyme inhibitory assay was carried out by a formerly described method, with some modifications. Compounds were dissolved in DMSO and six concentration gradients were set in turn. All the assays were performed in 0.1 M sodium phosphate buffer (PH = 6.8). The 10 μL sample was mixed with 100 μL α-glucosidase solution (0.2 U/mL, Sigma, Kanagawa, Japan) and shaken well, then added to a 96-well plate and incubated at 37 °C for 15 min. Subsequently, 40 μL of 2.5 mM 4-nitrophenyl-α-D-glucopyranoside was added and further incubated at 37 °C for 15 min. DMSO was used as a control and the blank wells contained buffer in place of substrate. The OD values were tested at 405 nm with a microplate reader. […] The percentage inhibition was calculated by the following equation:% inhibition = ((ODcontrol − ODsample)/(ODcontrol − ODblank)) × 100

The subject of assay [7] is K562, BEL-7402, SGC-7901, A549 and HeLa cells. The experiment in a line: Cytotoxic activity, summary over five human tumor cell lines. The class given is cell-based. Particulars: range over compounds 5 and 7 and K562, BEL-7402, SGC-7901, A549, HeLa, read-out: IC50 values, range over the five cancer cell lines.
Description: Two undescribed p-terphenyl derivatives, asperterphenylcins A–B (1–2), and two undescribed diphenyl ether derivatives, asperdiphenylcins A–B (3–4), together with three previously described p-terphenyl derivatives—4″-deoxyterprenin (5), terphenyllin (6), and 3″-hydroxyterphenyllin (7)—were obtained from the solid-rice culture of the marine-derived fungus Aspergillus candidus HM5-4, which was isolated from sponges from the South China Sea. Their structures were elucidated by HRESIMS data and NMR spectroscopic analysis.
as §2

Setting [8] is: Homo sapiens, SGC-7901, SGC-7901 cells.
Setting [9] is: Homo sapiens, Bel-7402, BEL-7402 cells.

Sequence of α-glucosidase (P53341 whole entry): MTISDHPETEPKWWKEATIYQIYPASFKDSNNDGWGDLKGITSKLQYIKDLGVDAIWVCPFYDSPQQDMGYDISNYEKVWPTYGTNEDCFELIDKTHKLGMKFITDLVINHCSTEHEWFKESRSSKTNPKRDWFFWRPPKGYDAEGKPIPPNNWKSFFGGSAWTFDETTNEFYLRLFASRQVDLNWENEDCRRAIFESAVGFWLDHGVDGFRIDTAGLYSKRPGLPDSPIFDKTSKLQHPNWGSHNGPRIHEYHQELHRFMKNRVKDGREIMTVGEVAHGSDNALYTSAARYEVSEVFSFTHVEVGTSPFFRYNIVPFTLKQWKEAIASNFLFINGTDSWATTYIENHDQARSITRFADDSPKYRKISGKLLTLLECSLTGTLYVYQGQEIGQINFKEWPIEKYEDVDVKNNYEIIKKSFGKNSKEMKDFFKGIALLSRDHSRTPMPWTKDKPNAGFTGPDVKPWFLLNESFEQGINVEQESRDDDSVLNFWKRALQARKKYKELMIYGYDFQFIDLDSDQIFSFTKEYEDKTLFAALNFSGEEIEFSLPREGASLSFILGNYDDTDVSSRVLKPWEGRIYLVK

As for `COC(=O)Nc1nc2ccccc2[nH]1` [Carbendazim, reference compound], the “diameter of inhibition zone against N. dimidiatum” value in assay [1] amounted to 55.00 ± 0.82 mm.

In the case of `N.N.[Cl][Pt][Cl]` [Cisplatin, cisplatin, reference compound], the IC50 was 11.3 ± 0.15 µM in assay [2]; 1.93 ± 0.02 µM in assay [3] (A549 cells); 4.11 ± 0.02 µM in assay [4] (SGC-7901 cells); 4.02 ± 0.06 µM in assay [5] (BEL-7402 cells); 3.08 ± 0.05 µM in assay [6].

As for `COc1ccc(O)c(-c2c(OC)cc(-c3ccc(O)cc3)c(OC)c2O)c1` [Compound 1, Asperterphenylcin A], the IC50 was more than 20 µg/mL in assay [2] (Homo sapiens); more than 20 µg/mL in assay [3] (Homo sapiens, A549, A549 cells); more than 20 µg/mL in assay [4] (setting [8]); more than 20 µg/mL in assay [5] (setting [9]); more than 20 µg/mL in assay [6] (Homo sapiens).

Take `COc1c(-c2ccc(O)cc2)cc(O)c(-c2ccc(O)cc2)c1OC` [Compound 2, Asperterphenylcin B]: the IC50 in assay [2] (Homo sapiens) was more than 20 µg/mL; in assay [3] (Homo sapiens, A549, A549 cells), more than 20 µg/mL; in assay [4] (setting [8]), more than 20 µg/mL; in assay [5] (setting [9]), more than 20 µg/mL; in assay [6] (Homo sapiens) it was more than 20 µg/mL.

As to `COc1cccc2c1C(=O)OCc1cc(COC(C)=O)cc(O)c1O2` [Compound 3, Asperdiphenylcin A], the IC50 in assay [2] (Homo sapiens) is more than 20 µg/mL; in assay [3] (Homo sapiens, A549, A549 cells), more than 20 µg/mL; in assay [4] (setting [8]), more than 20 µg/mL; in assay [5] (setting [9]), more than 20 µg/mL; in assay [6] (Homo sapiens) it was more than 20 µg/mL. Moreover, the “α-glucosidase inhibitory activity (in words)” value at α-glucosidase is given as “no α-glucosidase inhibitory activity”.

Take `COc1cccc2c1C(=O)OCc1cc(C(=O)O)cc(O)c1O2` [Compound 4, Asperdiphenylcin B]: the IC50 in assay [2] (Homo sapiens) was more than 20 µg/mL; in assay [3] (Homo sapiens, A549, A549 cells) it was more than 20 µg/mL; in assay [4] (setting [8]) it was more than 20 µg/mL; in assay [5] (setting [9]), more than 20 µg/mL; in assay [6] (Homo sapiens), more than 20 µg/mL. For the same compound, the “α-glucosidase inhibitory activity (in words)” value at α-glucosidase is reported as “no α-glucosidase inhibitory activity”.

`COc1cc(-c2ccccc2)c(OC)c(O)c1-c1ccc(OCC=C(C)C)c(O)c1` [Compound 5, 4″-deoxyterprenin]: the IC50 in assay [7] is 3.32 to 60.4 µM; in assay [2] (Homo sapiens) it was 44.77 ± 0.13 µM; in assay [3] (Homo sapiens, A549, A549 cells), 3.32 ± 0.1 µM; in assay [4] (setting [8]) it was 3.67 ± 0.17 µM; in assay [5] (setting [9]), 6.69 ± 0.12 µM; in assay [6] (Homo sapiens), 15.03 ± 0.14 µM. Besides, the “α-glucosidase inhibitory activity (in words)” value on α-glucosidase is recorded as “completely disappeared”. Besides, the “diameter of inhibition zone against N. dimidiatum” value in assay [1] is reported as 31.67 ± 2.36 mm.

`COc1cc(-c2ccc(O)cc2)c(OC)c(O)c1-c1ccc(O)cc1` [Compound 6, terphenyllin]: the IC50 in assay [2] (Homo sapiens) was more than 20 µg/mL; in assay [3] (Homo sapiens, A549, A549 cells) it was more than 20 µg/mL; in assay [4] (setting [8]) it was more than 20 µg/mL; in assay [5] (setting [9]), more than 20 µg/mL; in assay [6] (Homo sapiens), more than 20 µg/mL.

For the compound `COc1cc(-c2ccc(O)c(O)c2)c(OC)c(O)c1-c1ccc(O)cc1` [Compound 7, 3″-hydroxyterphenyllin], the IC50 in assay [7] is 3.32 to 60.4 µM; in assay [2] (Homo sapiens), 53.6 ± 0.73 µM; in assay [6] (Homo sapiens), 34 ± 0.4 µM.

The values above are taken from article PMC10817493, “p-Terphenyl and Diphenyl Ether Derivatives from the Marine-Derived Fungus Aspergillus candidus HM5-4” (Marine Drugs, 2023).
